Reference: patent US4760148A, “5-aralkyl substituted 2H-benzotriazoles and stabilized compositions” (Ciba-Geigy Corporation, priority 1985, dated 1988)

Columns and labels:
[1] = Solubility of benzotriazole stabilizers; format: physicochemical; details: 25° C.
Text: The benzotriazole stabilizers are classically materials with relatively low solubility in common organic solvents. This is particularly the case where the benzotriazole is substituted in the 2-phenyl ring with aralkyl groups intended to decrease stabilizer volatility during processing and use.

[2] = Thermal gravimetric analysis (resistance to loss of benzotriazole stabilizers); details: for Time (minutes) to 50% Weight Loss of Stabilizer: isothermal at 280° C.; for Time (minutes) to 50% Weight Loss of Stabilizer / Temperature °C. to 10% Weight Loss of Stabilizer / Temperature °C. to 50% Weight Loss of Stabilizer: 100 ml nitrogen/minute; for Temperature °C. to 10% Weight Loss of Stabilizer / Temperature °C. to 50% Weight Loss of Stabilizer: scanning at 10°(C.) per minute; for resistance to thermogravimetric loss: in words, compared with prior art benzotriazole F
Protocol: A number of 2-aryl-2H-benzotriazole light stabilizers are subjected to thermal gravimetric analysis with a flow rate of 100 ml nitrogen/minute both isothermally at 280° C. to indicate the time in minutes to reach 50% weight loss of the stabilizer as well as in a scanning mode at a heating rate of 10° (C.) per minute to ascertain the temperature at which 10% and 50% weight loss of stabilizer are observed.

[3] = Absorbance at 340nm (extinction coefficients); format: physicochemical; details: for Specific Extinction Coefficient a: equal weight basis
Text: The compounds of this invention show unanticipated enhancement of absorbance at 340nm as can be seem from a comparison of molar extinction coefficients E compared to state of the art compund F which lacks an aralkyl-substituent in the 5-position. In many cases the enhanced absorbance is also seen when products are compared i.e. in terms of Specific Extinction Coefficients a on an equal weight rather than molar basis.
Molar Extinction Coefficient E = a × molecular weight

[4] = in words, prior art patents; cited from earlier work
[5] = in words, prior art patents; cited from earlier work; remark: listed apart in the source
[6] = Stabilizer loss on milling into polycarbonate resin; details: milling at 400° F. (240° C.), 15 minutes, spectrophotometric
Protocol: Samples of light stabilizers are incorporated into polycarbonate resin by milling at 400° F. ([…]) for a 15 minute period. […] At the end of the milling period the percent stabilizer loss is determined spectrophotometrically.

[7] = Solubility of crystalline modification forms; format: physicochemical; details: organic solvents including xylene and methyl amyl ketone

Structure (SMILES)	Solubility in Butyl Cellosolve Acetate [1]	Solubility in Heptane [1]	Solubility in Methyl Amyl Ketone [1]	Solubility in Xylene [1]	Time (minutes) to 50% Weight Loss of Stabilizer [2] [min]	Temperature °C. to 10% Weight Loss of Stabilizer [2] [°C]	Temperature °C. to 50% Weight Loss of Stabilizer [2] [°C]	Molar Extinction Coefficient E [3] [L/mol/cm]	Specific Extinction Coefficient a [3] [L/g/cm]	compatibility / performance in substrates [4]	resistance to loss by volatilization [5]	resistance to thermogravimetric loss [2]	% loss (by weight) of stabilizer [6] [%]	solubility in substrates and processing solvents [4]	solubility of crystalline form melting at 114°-116° C. versus the other crystalline form [7]
CCC(C)(C)c1cc(-n2nc3ccccc3n2)c(O)c(C(C)(C)CC)c1 [Compound B, 2(2-hydroxy-3,5-di-tert-amylphenyl)-2H--benzotriazole]	19 grams per 100 grams solvent	23 grams per 100 grams solvent	34 grams per 100 grams solvent	70 grams per 100 grams solvent	0.9	200	233								
CC(C)(C)CC(C)(C)c1cc(-n2nc3ccc(C(C)(C)c4ccccc4)cc3n2)c(O)c(C(C)(C)CC(C)(C)C)c1 [Example 24, 5-alpha,alpha-Dimethylbenzyl-2-(2-hydroxy-3,5-di-tert-octylphenyl)-2H-benzotriazole]					40	308	348	17400	31						
Cc1cc(C(C)c2ccccc2)c(O)c(-n2nc3ccccc3n2)c1 (stereo not shown) [Stabilizer E, 2-[2-hydroxy-3-(1-phenylethyl)-5-methylphenyl]-2H-benzotriazole]					3.0	250	290			better compatibility	better resistance to loss by volatilization during processing				
CC(C)(c1ccccc1)c1cc(-n2nc3ccc(Cc4ccccc4)cc3n2)c(O)c(C(C)(C)c2ccccc2)c1 [Example 26, 5-Benzyl-2-[2-hydroxy-3,5-di-(alpha,alpha-dimethylbenzyl)phenyl]-2H-benzotriazole]					3780	360	405	18500	35			very much more resistant to thermogravimetric loss			
CCC(C)c1cc(-n2nc3ccccc3n2)c(O)c(C(C)(C)C)c1 (stereo not shown) [Stabilizer C, 2(2-hydroxy-3-tert-butyl-5-sec-butylphenyl)-2H--benzotriazole]					1.0	210	247								
CCC(C)(C)c1cc(-n2nc3ccc(C(C)(C)c4ccccc4)cc3n2)c(O)c(C(C)(C)CC)c1 [Example 23]	> 100 grams per 100 grams solvent	> 100 grams per 100 grams solvent	> 100 grams per 100 grams solvent	> 100 grams per 100 grams solvent	33	285	325	19100	41						
CC(C)(c1ccccc1)c1cc(-n2nc3ccccc3n2)c(O)c(C(C)(C)c2ccccc2)c1 [Compound F, 2-[2-hydroxy-3,5-di-(alpha,alpha-dimethylbenzyl)phenyl]-2 H-benzotriazole]	14 grams per 100 grams solvent	1.5 grams per 100 grams solvent	6 grams per 100 grams solvent	16 grams per 100 grams solvent	24	300	340	15100	34		superior resistance to loss from stabilized compositions during high temperature processing		< 3	relatively low solubility in some substrates and processing solvents	
CC(C)(C)CC(C)(C)c1cc(-n2nc3ccccc3n2)c(O)c(C(C)(C)CC(C)(C)C)c1 [2-(2-hydroxy-3,5-di-tert-octylphenyl)-2H-benzotriazole]											did not have outstanding resistance to loss by volatilization			enhanced solubility in processing solvents and substrates	
CC(C)(C)CC(C)(C)c1cc(-n2nc3ccc(C(C)(C)c4ccccc4)cc3n2)c(O)c(C(C)(C)c2ccccc2)c1 [Example 22, 5-alpha,alpha-Dimethylbenzyl-2-(2-hydroxy-3-alpha,alpha-dimethylbenzyl-5-tert-octylphenyl)-2H-benzotriazole]					840	340	387	18500	33						
CC(C)(c1ccccc1)c1cc(-n2nc3ccc(C(C)(C)c4ccccc4)cc3n2)c(O)c(C(C)(C)c2ccccc2)c1 [Example 21, 5-alpha,alpha-Dimethylbenzyl-2-[2-hydroxy-3,5-di (alpha, alpha-dimethylbenzyl)phenyl]-2H-benzotriazole]					2040	365	412	19500	28			very much more resistant to thermogravimetric loss	< 3		far greater solubility in many organic solvents
CC(C)(C)c1cc(-n2nc3ccc(C(C)(C)c4ccccc4)cc3n2)c(O)c(C(C)(C)C)c1 [Example 7, 5-alpha,alpha-Dimethylbenzyl-2-(2-hydroxy-3,5-di-tert-butylphenyl)-2H-benzotriazole]	61 grams per 100 grams solvent	97 grams per 100 grams solvent	128 grams per 100 grams solvent	197 grams per 100 grams solvent	19	295	338	19000	43			similar	< 3		
Cc1ccc(O)c(-n2nc3ccccc3n2)c1 [Stabilizer A, 2(2-hydroxy-5-methylphenyl)-2H--benzotriazole]					0.75	182	215								
CC(C)(C)CC(C)(C)c1ccc(O)c(-n2nc3ccccc3n2)c1 [Stabilizer D, 2-(2-hydroxy-5-tert-octylphenyl)-2H-benzotriazole]					1.9	225	260			superior compatibility and performance in polyethylene			40		
CC(C)(C)CC(C)(C)c1cc(-n2nc3ccccc3n2)c(O)c(C(C)(C)c2ccccc2)c1 [Compound G, 2-[2-hydroxy-3-(alpha,alpha-dimethylbenzyl)-5-tert-octylphenyl]-2H-benzotriazole]	19 grams per 100 grams solvent	9.7 grams per 100 grams solvent	33 grams per 100 grams solvent	82 grams per 100 grams solvent	7.4	267	307								
